14 molecules from patent EP4678629A1, “IONIZABLE LIPID MOLECULE, PREPARATION METHOD THEREFOR AND USE THEREOF” (Maxirna (Shanghai) Pharmaceutical Co., Ltd., priority 2023, dated 2024) can be followed below.

A short description of series [1]: Size and polydispersity index (PDI) of the lipid nanoparticle by dynamic light scattering. The format is physicochemical. To be noted: LNP encapsulating eGFP mRNA, ionizable lipid/DOPE/cholesterol/DMG-PEG2000 50/10/48.25/1.25 mol%, N/P 12; for Particle size: in nm (unit assumed). The method, then: (§1) The ionizable lipid compound and positive control 1 from Example I were dissolved in ethanol at a molar ratio of 50:10:48.25:1.25 with DOPE, cholesterol, and DMG-PEG2000 (all purchased from A.V.T (Shanghai) Pharmaceutical Co., Ltd.) to prepare an ethanol lipid solution. The enhanced green fluorescent protein (eGFP) mRNA was diluted in 20 mM citrate buffer (pH=6.1) to obtain an mRNA aqueous solution. By using a microfluidic device (Micro&Nano Biologics Co., Ltd., model: INano ™ L) mix ethanol lipid solution and mRNA aqueous solution in a volume ratio of 1:3 to prepare a lipid nanoparticle with a total lipid to mRNA N/P ratio of 12. The medium was replaced by ultrafiltration, ethanol was removed and volumed with DPBS. Finally, the lipid nanoparticle was filtered through a 0.2 µm sterile filter to obtain an LNP preparation encapsulating eGFP mRNA using ionizable lipid/DOPE/cholesterol/DMG-PEG2000 (50/10/48.25/1.25 mol%), with an mRNA content of 0.002 mg/ml-0.5 mg/mL.
(§2) Using Malvern Zetasizer Nano ZS (Malvern UK), the size and polydispersity index (PDI) of the lipid nanoparticle were determined by dynamic light scattering in 173° backscatter detection mode, and the encapsulation efficiency was measured by Ribogreen method.

Series [2] can be described thus: Encapsulation efficiency of the lipid nanoparticle (eGFP mRNA) by Ribogreen method. The format is physicochemical. To be noted: LNP encapsulating eGFP mRNA, ionizable lipid/DOPE/cholesterol/DMG-PEG2000 50/10/48.25/1.25 mol%, N/P 12. The method, then: as §1, §2
Series [3] can be described thus: In vitro transfection of cells with eGFP-mRNA lipid nanoparticle (LNP preparation), fluorescence imaging and flow cytometry. The format is cell-based, mouse. The conditions noted are these: mouse, dc2.4 cells, 200 ng of mRNA per well, after 24 hours; read-out: Cell viability, %. The text has this: (§3) This example used mouse bone marrow-derived dendritic cells DC2.4 (purchased from Millipore) as the validation cell line for a lipid nanoparticle transfection experiment. DC2.4 cells adhered to the wall for growth. All operational steps of cell culture strictly followed the prescribed procedures, using sterile reagents for aseptic operations under a sterile workbench. The main operational steps involved were as follows: • 1) Cell recovery: the preserved cell cryopreservation solution was removed from the -80 °C freezer and immediately placed in a 37 °C water bath for rapid and continuous shaking, allowing it to completely melt within one minute. Fresh culture medium was added to a 15 mL centrifuge tube in advance, and the cell fluid was added to the centrifuge tube in a biosafety cabinet. A centrifuge tube of the same mass was taken, placed symmetrically in the centrifuge, and centrifuged at low speed for 5 minutes at 1200 rpm. After centrifugation, the upper clear liquid was removed, and an appropriate amount of culture medium was slowly added along the tube wall. After the cells were gently blown and dispersed evenly, the cell suspension was drawn and added to the prepared culture bottle. The state and distribution of cells in the early stage of recovery were observed under a microscope. The culture bottle was incubated in a 5% CO2 incubator at 37 °C, and the recovery time was recorded. • 2) Cell passaging: Under a microscope, if the cell density in the field of view reached 80%-90%, cells could be passaged and cultured. Adherent cells required trypsin digestion. In order to avoid residual serum in the culture medium reducing trypsin activity, the original culture medium was removed, and DPBS solution was added to wash once. After suctioning out the DPBS solution, trypsin was added to degrade the protein at the intercellular junction, thereby separating the cells and facilitating further cultivation. The mixture was gently shaken well and placed into the incubator for digestion for 2-3 minutes. After digestion was complete, an appropriate amount of culture medium was immediately added to the original culture dish to terminate digestion. Finally, a pipette was used to carefully blow off the cells and blow them until they were evenly dispersed, and then the cells were inoculated and subcultured in a certain proportion according to experimental requirements.
(§4) Transfection of DC2.4 cells • 1) DC2.4 cell recovery: the frozen DC2.4 cells were taken out from the -80 °C refrigerator and immediately put into a 37 °C water bath for rapid thawing. After melting, they were added to the preheated culture medium, and centrifuged at 1200 rpm for 5 minutes. The supernatant was discarded, and an appropriate amount of DMEM medium containing 10% FBS was added to resuspend the recovered DC2.4 cells, which were placed in a 37 °C, 5% CO2 incubator for activation culture. • 2) According to experimental requirements, DC2.4 cells were transfected into 24 well plates one day in advance. By counting cells, the number and viability of cells were recorded, and a cell suspension with 2 × 10^5 cells per well were taken. Then, a certain volume of DMEM medium containing 10% FBS was added and mixed evenly, wherein 1 mL was added per well for subsequent transfection experiments. • 3) After 24 hours, the culture medium was gently aspirated with a pipette 30 minutes in advance, and each well was washed with 1 mL of DPBS and aspirated. […] The mixture was placed in a 37 °C, 5% CO2 incubator for activation cultivation. • 6) After 24 hours, cell viability (%), eGFP positivity rate (%), and mean fluorescence intensity data were obtained through cell fluorescence imaging and flow cytometry.

The test system of a further series is DC2.4 cells. Described as above. In kind it is cell-based, mouse. The conditions noted are these: eGFP positivity rate, DC2.4 cells, 200 ng of mRNA per well, after 24 hours.
Source text: as §3, §4

In the case of `CCCCCCCCCCCCCCOC(=O)CCCCCCN(CCO)CCCN(CCCCCCC(=O)OCCCCCCCCCCCCCC)CCCCCCC(=O)OCCCCCCCCCCCCCC` [Example 56, Ditetradecyl 7,7'-((3-((2-hydroxyethyl)(7-oxo-7-(tetradecyloxy)heptyl)amino)propyl)azanediyl)diheptanoate], in series [1], the PDI was 0.14 and the Particle size stood at 64.31. Also, in series [2], the “Encapsulation rate, %” value is on record as 99.68%. Further, the viability at 24 h in series [3] was found to be 80.5%. Further, the “Positive rate, %” value in the series with DC2.4 cells is reported as 93.64%.

For `CCCCCCCCCCCCOC(=O)CCCCCN(CCO)CCCN(CCCCCC(=O)OCCCCCCCCCCCC)CCCCCC(=O)OCCCCCCCCCCCC` [Example 44, Didodecyl 6,6'-((3-((6-(dodecoxy)-6-oxohexyl)(2-hydroxyethyl)amino)propyl)azahexyl)dihexanoate], in series [1], the PDI was 0.20. Further, the “Encapsulation rate, %” value in series [2] is reported as 99.38%. Further, in series [3], the viability at 24 h was 91.9%. The “Positive rate, %” value in the series on DC2.4 cells was 94.2%.

`CCCCCCCCC(CCCCCCCC)OC(=O)CCCCCCCN(CCO)CCCN(CCCCCCCC(=O)OC(CCCCCCCC)CCCCCCCC)CCCCCCCC(=O)OC(CCCCCCCC)CCCCCCCC` [Example 2, Di(heptadecane-9-yl)8,8'-((3-((8-(heptadecane-9-oxy)-8-oxooctyl)(2-hydroxyethyl)amino)propyl)azanediyl)dioctanoate] gave a PDI in series [1] of 0.24. Moreover, the “Encapsulation rate, %” value in series [2] came out at 97.27%. For the same molecule, in series [3], the viability at 24 h was found to be 82.9%. Also, the “Positive rate, %” value in the series with DC2.4 cells is reported as 73.48%.

In series [1], `CCC/C=C\COC(=O)CCCCCCCN(CCO)CCCN(CCCCCCCC(=O)OC/C=C\CCC)CCCCCCCC(=O)OC/C=C\CCC` [Example 17, Di((Z)-hexyl-2-en-1-yl)8,8'-((3-((8-(((Z)-hexyl-2-en-1-yl)oxo)-8-oxooctyl)(2-hydroxyethyl)amino)propyl)azanediyl)dioctanoate] showed a PDI of 0.26. The “Encapsulation rate, %” value in series [2] is 90.04%. Moreover, in series [3], the viability at 24 h is 71.1%. Moreover, the “Positive rate, %” value in the series on DC2.4 cells came to 95.88%.

In series [1], `CCCCCCCCCCCCCCOC(=O)CCCCCN(CCCO)CCCN(CCCCCC(=O)OCCCCCCCCCCCCCC)CCCCCC(=O)OCCCCCCCCCCCCCC` [Example 54, Ditetradecyl 6,6'-((3-((3-hydroxypropyl)(6-oxo-6-(tetradecyloxy)hexyl)amino)propyl)azanediyl)dihexanoate] displayed a PDI of 0.14 and a Particle size of 72.45. In series [2], the “Encapsulation rate, %” value is on record as 98.91%. Also, in series [3], the viability at 24 h is 75.9%. The “Positive rate, %” value in the series with DC2.4 cells was 93.13%.

`CCCCCCCCCCCOC(=O)CCCCCN(CCCCO)CCCN(CCCCCC(=O)OCCCCCCCCCCC)CCCCCC(=O)OCCCCCCCCCCC` [Example 28, Diundecyl 6,6'-((3-((4-hydroxybutyl)(6-oxo-6-(undecyloxy)hexyl)amino)propyl)azanediyl)dihexanoate] had a PDI in series [1] of 0.17. Further, the “Encapsulation rate, %” value in series [2] came to 99.47%. Moreover, the viability at 24 h in series [3] is 92.9%. The “Positive rate, %” value in the series on DC2.4 cells is reported as 97.51%.

`CCCCCCCCCCCOC(=O)CCN(CCO)CCCN(CCC(=O)OCCCCCCCCCCC)CCC(=O)OCCCCCCCCCCC` [Example 67, Diundecyl 3,3'-((3-((2-hydroxyethyl)(3-oxo-3-(undecyloxy)propyl)amino)propyl)azanediyl)dipropionate]: in series [1], the PDI is recorded as 0.20 and the Particle size was 86.08. In addition, the “Encapsulation rate, %” value in series [2] is recorded as 66.08%. Moreover, the viability at 24 h in series [3] is 95.8%. The “Positive rate, %” value in the series with DC2.4 cells was 98.32%.

In series [1], `CCCCCCCCCCCOC(=O)CCCN(CCCO)CCCCCN(CCCC(=O)OCCCCCCCCCCC)CCCC(=O)OCCCCCCCCCCC` [Example 83] yielded a PDI of 73.54 and a Particle size of 99.79. In addition, in series [2], the “Encapsulation rate, %” value amounted to 99.79%. The viability at 24 h in series [3] came to 84.2%. In the series on DC2.4 cells, the “Positive rate, %” value is given as 97.05%.

In series [1], `CCCCCCCCCCCOC(=O)CCCN(CCCO)CCCCN(CCCC(=O)OCCCCCCCCCCC)CCCC(=O)OCCCCCCCCCCC` [Example 82, Diundecyl 4,4'-((4-((3-hydroxypropyl)(4-oxo-4-(undecyloxy)butyl)amino)butyl)azanediyl)dibutanoate] gave a PDI of 92.91 and a Particle size of 99.74. Also, the “Encapsulation rate, %” value in series [2] stood at 99.74%. Besides, the viability at 24 h in series [3] was 76%. In addition, in the series with DC2.4 cells, the “Positive rate, %” value amounted to 96.72%.

In series [1], `CCCCCCCCCCCOC(=O)CCCCCCN(CCO)CCCN(CCCCCCC(=O)OCCCCCCCCCCC)CCCCCCC(=O)OCCCCCCCCCCC` [Example 32] displayed a PDI of 0.13 and a Particle size of 83.34. For the same molecule, in series [2], the “Encapsulation rate, %” value is 99.30%. For the same molecule, the viability at 24 h in series [3] was 96.6%. For the same molecule, the “Positive rate, %” value with DC2.4 cells is 95.28%.

Turning to `CCCCCCCCCCCCCOC(=O)CCCCN(CCCO)CCCN(CCCCC(=O)OCCCCCCCCCCCCC)CCCCC(=O)OCCCCCCCCCCCCC` [Example 40], in series [1], the PDI is 0.14 and the Particle size was determined as 63.23. The “Encapsulation rate, %” value in series [2] was 99.29%. Further, the viability at 24 h in series [3] came out at 97.7%. Also, the “Positive rate, %” value in the series with DC2.4 cells turned out to be 99.14%.

In series [1], `CCCCC/C=C\C/C=C\CCCCCCCCOC(=O)CCCN(CCO)CCCN(CCCC(=O)OCCCCCCCC/C=C\C/C=C\CCCCC)CCCC(=O)OCCCCCCCC/C=C\C/C=C\CCCCC` [Example 80, Di((9Z,12Z)-octadeca-9,12-dien-1-yl)4,4'-((3-((2-hydroxyethyl)(4-(((9Z,12Z)-octadeca-9,12-dien-1-yl)oxo)-4-oxobutyl)amino)propyl)azanediyl)dibutanoate] yielded a Particle size of 99.14. Besides, the “Encapsulation rate, %” value in series [2] was found to be 99.14%. In addition, the viability at 24 h in series [3] was 87.3%. In addition, the “Positive rate, %” value with DC2.4 cells is on record as 94.60%.

In series [1], `CCCCCCCCCCCCCOC(=O)CN(CCO)CCCN(CC(=O)OCCCCCCCCCCCCC)CC(=O)OCCCCCCCCCCCCC` [Example 76, Ditridecyl 2,2'-((3-((2-hydroxyethyl)(2-oxo-2-(tridecyloxy)ethyl)amino)propyl)azanediyl)diacetate] came in with a Particle size of 74.60. Besides, the “Encapsulation rate, %” value in series [2] is on record as 96.23%. The viability at 24 h in series [3] was 95%. The “Positive rate, %” value in the series on DC2.4 cells is reported as 98.01%.

In series [1], `CCCCCCCCCCCCOC(=O)CCCCCCN(CCCO)CCCN(CCCCCCC(=O)OCCCCCCCCCCCC)CCCCCCC(=O)OCCCCCCCCCCCC` [Example 48, Didodecyl 7,7'-((3-((7-(dodecyloxy)-7-oxoheptyl)(3-hydroxypropyl)amino)propyl)azanediyl)diheptanoate] gave a PDI of 0.16 and a Particle size of 76.18. For the same molecule, the “Encapsulation rate, %” value in series [2] is 99.52%. In series [3], the viability at 24 h stood at 94%. In addition, in the series on DC2.4 cells, the “Positive rate, %” value is on record as 97.26%.
